The text below walks through data of patent US11708366B2, “Heteroaryl substituted spiropiperidinyl derivatives and pharmaceutical uses thereof” (Novartis AG, priority 2020, dated 2023).

Test [1] has as its target T1, LTC4S (Homo sapiens (Human), UniProt Q16873). The test is described as follows: Human whole blood HTRF assay (LTC4 release after calcium ionophore A23187). It counts as cell-based. The settings on record: calcium ionophore A23187 stimulation, LTC4 by HTRF. Background: TR-FRET usually uses a lanthanide donor and a delayed reading to cut background.
In test [2] the target is T1, LTC4S. Nature of the test: Human LTC4S enzymatic assay (HTRF detection of LTC4-Me). It is filed as biochemical. On the procedure: A. Human LTC4S Enzymatic Assay:
LTC4 synthase catalyzes the conversion of Leukotriene A4 (LTA4) to Leukotriene C4 (LTC4) in the presence of reduced glutathione (GSH) as a co-substrate. For compound testing, compounds are delivered as 10 mM stock solutions in 90% DMSO in matrix tubes. From this, a 1:3 dilution dose response series is prepared with a starting concentration of 30 μM to 0.1 nM. For the enzymatic assay 97.5 nL of compound/DMSO solution is transferred to each well and 5 μL enzyme solution (assay buffer: 50 mM bis-tris propane pH 7.3, 250 mM NaCl, 10 mM MgCl2, 0.001% MGN3) is added to the wells. […] The enzyme compound mixture is incubated at room temperature for 15 minutes prior to the addition of 5 μL substrate solution. […] A final substrate concentration of 400 μM GSH and 5 μM LTA4-Me is chosen.
The LTA4-Me is obtained commercially in 2% triethylamine/hexane solvent. As this solvent is incompatible with the HTRF assay it has to be exchanged with DMSO according to following procedure: add 50 μL of 100% DMSO to 50 μL LTA4-Me (3 mM) in a 2 mL Eppendorf tube and mix gently by inverting the tube. The triethylamine/hexane is evaporated under a constant argon flux at room temperature. The DMSO-LTA4-Me (3 mM) is aliquoted and stored at −20° C. for not longer than 4 weeks, as it is not stable in DMSO due to its oxidizing properties.
Upon addition of the substrate, the plate is immediately placed on a shaker for 5 min at room temperature. Immediately after the 5 min incubation 5 μL of H2O2 solution is added to all wells to stop the reaction. The plate contents are mixed before the addition of detection reagents. […] For the detection of the product of the enzymatic reaction LTC4-Me, the Cisbio LTC4-HTRF kit is used as the assay is compatible with the detection of LTC4-Me. 5 μL of diluted LTC4-d2 conjugate (according to manufacturer's protocol) are added to all wells of the assay plate and the contents gently mixed and incubated for 5 minutes at room temperature. […] The percent inhibition for each point of an inhibition curve is calculated after data interpolation using the LTC4-Me standard curve, to convert the HTRF signal to the amount of LTC4-Me produced within the LTC4S catalyzed reaction on each plate. The data is analyzed using parametric curve fitting to determine IC50 values of LTC4S inhibitors.

Where [3] appears, read: human whole blood diluted 1:3, 4 h incubation, read-out: human whole blood HTRF IC50.
[4] abbreviates: 0.75 nM enzyme, 400 μM GSH, 5 μM LTA4-Me, 15 min pre-incubation, read-out: human LTC4S IC50 (enzymatic assay).

Consider `Cn1cc(-c2ccc(F)cc2)nc(N2CCC3(CCCC(=O)N3c3ccc(Cl)c(F)c3)CC2)c1=O` [Example 9, 1-(4-chloro-3-fluorophenyl)-9-(6-(4-fluorophenyl)-4-methyl-3-oxo-3,4-dihydropyrazin-2-yl)-1,9-diazaspiro[5.5]undecan-2-one], for which the IC50 (commonly the concentration at which inhibition is half-maximal) on LTC4S [1] (setting [3]) is 48 nM; at LTC4S [2] (setting [4]), 2 nM.
Consider `O=C1CCCC2(CCN(c3ccn4nc(C(F)(F)F)cc4n3)CC2)N1c1ccc(Cl)c(F)c1` [Example 5, 1-(4-chloro-3-fluorophenyl)-9-(2-(trifluoromethyl)pyrazolo[1,5-a]pyrimidin-5-yl)-1,9-diazaspiro[5.5]undecan-2-one], for which the values for the half-maximal inhibitory concentration (IC50) at LTC4S [1] (setting [3]) and at LTC4S [2] (setting [4]) were 10 nM and 5 nM, respectively.
As for `O=C1CCCC2(CCN(c3cccc(-c4ccc(F)cc4)n3)CC2)N1c1ccc(Cl)cc1` [Example 32, 1-(4-chlorophenyl)-9-(6-(4-fluorophenyl)pyridin-2-yl)-1,9-diazaspiro[5.5]undecan-2-one], the IC50 turned out to be 170 nM at LTC4S [1] (setting [3]) and 7 nM on LTC4S [2] (setting [4]).
Taken in the same sequence, the figures for `O=C1CCCC2(CCN(c3cc(OCC(F)F)ncn3)CC2)N1c1ccc(Cl)c(F)c1` [Example 84, 1-(4-chloro-3-fluorophenyl)-9-(6-(2,2-difluoroethoxy)pyrimidin-4-yl)-1,9-diazaspiro[5.5]undecan-2-one] were 9 nM and 8 nM.
For `O=C1CCCC2(CCN(c3cn(-c4ccc(F)cc4)nn3)CC2)N1c1ccc(Cl)c(F)c1` [Example 29, 1-(4-chloro-3-fluorophenyl)-9-(1-(4-fluorophenyl)-1H-1,2,3-triazol-4-yl)-1,9-diazaspiro[5.5]undecan-2-one], the IC50 worked out at 180 nM on LTC4S [1] (human whole blood HTRF IC50, human whole blood diluted 1:3, 4 h incubation) and 57 nM on LTC4S [2].
As for `O=C1CCCC2(CCN(c3ncc4ccc(C(F)(F)F)cc4n3)CC2)N1c1ccc(Cl)c(F)c1` [Example 4, 1-(4-chloro-3-fluorophenyl)-9-(7-(trifluoromethyl)quinazolin-2-yl)-1,9-diazaspiro[5.5]undecan-2-one], the figures for the IC50 on LTC4S [1] (setting [3]) and at LTC4S [2] (setting [4]) were 50 nM and 7 nM, respectively.
As for `O=C1CCCC2(CCN(c3nsc(N4CCC(F)(F)C4)n3)CC2)N1c1ccc(Cl)c(F)c1` [Example 23, 1-(4-chloro-3-fluorophenyl)-9-(5-(3,3-difluoropyrrolidin-1-yl)-1,2,4-thiadiazol-3-yl)-1,9-diazaspiro[5.5]undecan-2-one], the IC50 was determined as 45 nM at LTC4S [1] (setting [3]) and 61 nM on LTC4S [2] (setting [4]).
On to `O=C1CCCC2(CCN(c3ncnc(N4CC(C(F)(F)F)C4)c3F)CC2)N1c1ccc(Cl)c(F)c1` [Example 37, 1-(4-chloro-3-fluorophenyl)-9-(5-fluoro-6-(3-(trifluoromethyl)azetidin-1-yl)pyrimidin-4-yl)-1,9-diazaspiro[5.5]undecan-2-one], for which the IC50 on LTC4S [1] (setting [3]) is 120 nM; at LTC4S [2] (setting [4]), 12 nM.
The like results for `O=C1CCCC2(CCN(c3nncc(C4CCCC4)n3)CC2)N1c1ccc(Cl)c(F)c1` [Example 20, 1-(4-chloro-3-fluorophenyl)-9-(5-cyclopentyl-1,2,4-triazin-3-yl)-1,9-diazaspiro[5.5]undecan-2-one] were, in that order, 64 nM and 12 nM.
On to `O=C1CCCC2(CCN(c3cc(OCC(F)(F)F)ccn3)CC2)N1c1ccc(Cl)c(F)c1` [Example 81, 1-(4-chloro-3-fluorophenyl)-9-(4-(2,2,2-trifluoroethoxy)pyridin-2-yl)-1,9-diazaspiro[5.5]undecan-2-one], for which the IC50 at LTC4S [1] (setting [3]) stood at 72 nM; at LTC4S [2] (setting [4]) it was 13 nM.
As to `O=C1CCCC2(CCN(c3nsc(N4CC(C(F)(F)F)C4)n3)CC2)N1c1ccc(Cl)c(F)c1` [Example 24, 1-(4-chloro-3-fluorophenyl)-9-(5-(3-(trifluoromethyl)azetidin-1-yl)-1,2,4-thiadiazol-3-yl)-1,9-diazaspiro[5.5]undecan-2-one], the values for the IC50 on LTC4S [1] (setting [3]) and at LTC4S [2] (setting [4]) were 110 nM and 33 nM, respectively.
As for `O=C1CCCC2(CCN(c3ncnc(N4CCCC4)n3)CC2)N1c1ccc(Cl)c(F)c1` [Example 38, 1-(4-chloro-3-fluorophenyl)-9-(4-(pyrrolidin-1-yl)-1,3,5-triazin-2-yl)-1,9-diazaspiro[5.5]undecan-2-one], the IC50 at LTC4S [1] (setting [3]) turned out to be 86 nM; at LTC4S [2] (setting [4]) it was 8 nM.
The like results for `O=C1CCCC2(CCN(c3ncn(-c4ccc(F)cc4)n3)CC2)N1c1ccc(Cl)c(F)c1` [Example 1, 1-(4-chloro-3-fluorophenyl)-9-(1-(4-fluorophenyl)-1H-1,2,4-triazol-3-yl)-1,9-diazaspiro[5.5]undecan-2-one] were, in that order, 13 nM and 6 nM.
Taken in the same sequence, the figures for `O=C1CCCC2(CCN(c3nsc(N4CCCC4)n3)CC2)N1c1ccc(Cl)c(F)c1` [Example 25, 1-(4-chloro-3-fluorophenyl)-9-(5-(pyrrolidin-1-yl)-1,2,4-thiadiazol-3-yl)-1,9-diazaspiro[5.5]undecan-2-one] were 170 nM and 62 nM.
The like results for `O=C1CCCC2(CCN(c3ncc(-c4ccc(F)cc4)o3)CC2)N1c1ccc(Cl)c(F)c1` [Example 21, 1-(4-chloro-3-fluorophenyl)-9-(5-(4-fluorophenyl)oxazol-2-yl)-1,9-diazaspiro[5.5]undecan-2-one] were, in that order, 7 nM and 4 nM.
With `O=C1CCCC2(CCN(c3ncc(C4CCCCC4)o3)CC2)N1c1ccc(Cl)c(F)c1` [Example 27, 1-(4-chloro-3-fluorophenyl)-9-(5-cyclohexyloxazol-2-yl)-1,9-diazaspiro[5.5]undecan-2-one], the IC50 on LTC4S [1] (setting [3]) came to 59 nM; at LTC4S [2] (setting [4]), 25 nM.
Consider `O=C1CCCC2(CCN(c3noc(C45CC(C(F)(F)F)(C4)C5)n3)CC2)N1c1ccc(Cl)c(F)c1` [Example 7, 1-(4-chloro-3-fluorophenyl)-9-(5-(3-(trifluoromethyl)bicyclo[1.1.1]pentan-1-yl)-1,2,4-oxadiazol-3-yl)-1,9-diazaspiro[5.5]undecan-2-one], for which the IC50 on LTC4S [1] (setting [3]) was 100 nM; on LTC4S [2] (setting [4]), 76 nM.
The like results for `O=C1CCCC2(CCN(c3ccn(-c4ccc(F)cc4)n3)CC2)N1c1ccc(Cl)c(F)c1` [Example 30, 1-(4-chloro-3-fluorophenyl)-9-(1-(4-fluorophenyl)-1H-pyrazol-3-yl)-1,9-diazaspiro[5.5]undecan-2-one] were, in that order, 360 nM and 13 nM.
The like results for `O=C1CCCC2(CCN(c3nc(-c4ccc(F)cc4)n[nH]3)CC2)N1c1ccc(Cl)c(F)c1` [Example 26, 1-(4-chloro-3-fluorophenyl)-9-(3-(4-fluorophenyl)-1H-1,2,4-triazol-5-yl)-1,9-diazaspiro[5.5]undecan-2-one] were, in that order, 110 nM and 16 nM.
Taken in the same sequence, the figures for “1-(4-chloro-3-fluorophenyl)-9-(5-((1R,2R)-2-(trifluoromethyl)cyclopropyl)-1,2,4-oxadiazol-3-yl)-1,9-diazaspiro[5.5]undecan-2-one, or 1-(4-chloro-3-fluorophenyl)-9-(5-((1S,2S)-2-(trifluoromethyl)cyclopropyl)-1,2,4-oxadiazol-3-yl)-1,9-diazaspiro[5.5]undecan-2-one [Example 6a]” were 310 nM and 190 nM.
